This is an account of results in paper PMC6115637 (Chemical Science, 2018).

Format in all cases: cell-based
Test [1] has as its target T1, M4 receptor I81A (Homo sapiens, UniProt P08173, I81A).
T1 sequence (P08173 1-479 I81A): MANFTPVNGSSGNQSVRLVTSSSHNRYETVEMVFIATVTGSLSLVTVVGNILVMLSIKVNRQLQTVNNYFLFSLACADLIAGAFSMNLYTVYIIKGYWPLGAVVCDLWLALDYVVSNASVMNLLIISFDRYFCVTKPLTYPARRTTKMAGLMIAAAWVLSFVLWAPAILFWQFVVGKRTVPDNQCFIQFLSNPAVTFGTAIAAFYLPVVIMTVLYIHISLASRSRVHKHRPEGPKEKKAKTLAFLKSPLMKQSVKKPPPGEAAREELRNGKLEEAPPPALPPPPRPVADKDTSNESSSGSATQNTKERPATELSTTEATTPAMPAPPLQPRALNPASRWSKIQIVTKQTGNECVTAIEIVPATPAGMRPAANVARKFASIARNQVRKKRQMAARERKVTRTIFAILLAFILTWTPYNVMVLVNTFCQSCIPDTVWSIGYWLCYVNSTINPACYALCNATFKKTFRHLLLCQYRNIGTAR
Put plainly: Split luciferase biosensor cAMP assay for Gi activation, M4 mutant I81A. The following applies: M4 mutant I81A vs WT.

Test [2] has as its target T2, M4 receptor S116A (Homo sapiens, UniProt P08173, S116A).
T2 sequence (P08173 1-479 S116A): T1 sequence (P08173 1-479 I81A) with A81I, S116A
Put plainly: Split luciferase biosensor cAMP assay for Gi activation, M4 mutant S116A. The settings on record: M4 mutant S116A vs WT.

Test [3] addresses T3, M4 receptor S119A (Homo sapiens, UniProt P08173, S119A).
T3 sequence (P08173 1-479 S119A): T1 sequence (P08173 1-479 I81A) with A81I, S119A
Put plainly: Split luciferase biosensor cAMP assay for Gi activation, M4 mutant S119A. The following applies: M4 mutant S119A vs WT. (Cyclic AMP is a second messenger, typically raised through Gs and lowered through Gi signalling.)

Test [4] has as its target T4, M4 receptor V120A (Homo sapiens, UniProt P08173, V120A).
T4 sequence (P08173 1-479 V120A): T1 sequence (P08173 1-479 I81A) with A81I, V120A
Put plainly: Split luciferase biosensor cAMP assay for Gi activation, M4 mutant V120A. The settings on record: M4 mutant V120A vs WT.

Test [5] deals with T5, M4 receptor F409A (Homo sapiens, UniProt P08173, F409A).
T5 sequence (P08173 1-479 F409A): T1 sequence (P08173 1-479 I81A) with A81I, F409A
Nature of the test: Split luciferase biosensor cAMP assay for Gi activation, M4 mutant F409A. The following applies: M4 mutant F409A vs WT.

For test [6], the target named is T6, M4 receptor W413A (Homo sapiens, UniProt P08173, W413A).
T6 sequence (P08173 1-479 W413A): T1 sequence (P08173 1-479 I81A) with A81I, W413A
Put plainly: Split luciferase biosensor cAMP assay for Gi activation, M4 mutant W413A.

Test [7] deals with T7, M4 receptor N445A (Homo sapiens, UniProt P08173, N445A).
T7 sequence (P08173 1-479 N445A): T1 sequence (P08173 1-479 I81A) with A81I, N445A
Nature of the test: Split luciferase biosensor cAMP assay for Gi activation, M4 mutant N445A. The settings on record: M4 mutant N445A vs WT.

Substitutions are numbered along the chain they refer to.

As for `CC(=O)OCC[N+](C)(C)C` [ACh, acetylcholine], the “activity decrease compared to WT M4 receptor” value in test [1] and in test [2] was 100 times throughout. In addition, the “decreased activity compared to WT M4 receptor” value in test [3], in test [5] and in test [7] was 4–14 fold throughout. In addition, in test [4], the “change of EC50 compared to WT M4 receptor (printed: increased the EC50)” value was 16 fold. Further, in test [6], the “activity of M4 mutant towards ACh” value is “completely inactive”.
